The text below walks through data of patent publication US20050107303A1, “Health feed” (priority 2001, published 2005).

The test system of the assay is immunoglobulin A. Description: IgA production by mid colon biopsy samples of cats fed the diets, measured by ELISA. It is filed as in vivo, cat. How it is done:
The study was carried out using eight members of the cat colonic health panel, which were known to be in good (intestinal) health. Cats were wormed and vaccinated 6 months prior to the start of the trial. The cats underwent the following trial regime; [table] Both the control diet and the glutamine enriched diet provided 405 kCal/100 g. The control diet was a dry diet containing approximately 4% water. The control diet comprised the following ingredients (˜is approximately): The glutamine-supplemented diet comprised 1% dry weight by weight glutamine provided as L-glutamine. The glutamine was sprayed onto the external surface of the dry control product. Levels of immunoglobulin A production by mid colon biopsy samples were measured by enzyme linked immunosorbent assay (ELISA). IgA ELISA test was obtained from Bethyl and performed as described in provided protocol sheets. In short, 96 well microplates were taken and coated with 100 μl anti-canine IgA overnight at 4° C. After each step the plates were washed with ELISA wash (50 Mm) Tris, pH 8.0, 0.1M NaCl, 0.05% Tween 20). Unreacted sites were blocked with tris-buffered saline (TBS) containing 1% bovine serum albumin (BSA) for 30 minutes. […] Finally, the absorbence was read spectrophotometrically at 450 nm using an ELISA plate reader.
In general terms: An ELISA detects its analyte on a solid surface through an enzyme-linked reagent.

In the case of `NC(=O)CC[C@H](N)C(=O)O` [Glutamine, L-glutamine], for the setting “cats fed diets containing 1% glutamine, samples taken from below the transwell, P=0.048, GLM”, the “IgA production by the colon, compared to the other diets” value is on record as “significant increase”. In addition, the “IgA production (ng/mg protein) Intestinal Sample” value (healthy cats, diet with 1% dry w/w L-glutamine for 28 days, mid colon biopsy samples, letters (a)/(b) mark a significant difference) is reported as 1003.1 ± 762.9 (b) ng/mg protein.
